From patent US8173635B2, “Kinase inhibitors” (Vertex Pharmaceuticals Incorporated, priority 2007, dated 2012)

Key:
Format in all cases: biochemical
PKC delta kinase = PKC delta kinase (Homo sapiens, UniProt Q05655); assay: PKC delta kinase inhibition, coupled-enzyme NADH absorbance assay (Ki); settings: 150 μM ATP, 46 nM PKC delta, 30° C.; read-out: Ki PKC delta
Summary of the method: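 Assay buffer was 100 mM HEPES pH 7.5, 10 mM MgCl2, 25 mM NaCl, 0.1 mM EDTA, 0.01% Brij. Enzyme buffer was equilibrated with compound in DMSO for 10 min at 30 °C. Ki values were derived by non-linear regression of initial rate data.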

PKC theta kinase = PKC theta kinase (Homo sapiens, UniProt Q04759); assay: PKC theta kinase inhibition, coupled-enzyme NADH absorbance assay (Ki); settings: 240 μM ATP, 18 nM PKC theta, 30° C.; read-out: Ki PKC theta
Chain of PKC theta kinase (Q04759 whole entry): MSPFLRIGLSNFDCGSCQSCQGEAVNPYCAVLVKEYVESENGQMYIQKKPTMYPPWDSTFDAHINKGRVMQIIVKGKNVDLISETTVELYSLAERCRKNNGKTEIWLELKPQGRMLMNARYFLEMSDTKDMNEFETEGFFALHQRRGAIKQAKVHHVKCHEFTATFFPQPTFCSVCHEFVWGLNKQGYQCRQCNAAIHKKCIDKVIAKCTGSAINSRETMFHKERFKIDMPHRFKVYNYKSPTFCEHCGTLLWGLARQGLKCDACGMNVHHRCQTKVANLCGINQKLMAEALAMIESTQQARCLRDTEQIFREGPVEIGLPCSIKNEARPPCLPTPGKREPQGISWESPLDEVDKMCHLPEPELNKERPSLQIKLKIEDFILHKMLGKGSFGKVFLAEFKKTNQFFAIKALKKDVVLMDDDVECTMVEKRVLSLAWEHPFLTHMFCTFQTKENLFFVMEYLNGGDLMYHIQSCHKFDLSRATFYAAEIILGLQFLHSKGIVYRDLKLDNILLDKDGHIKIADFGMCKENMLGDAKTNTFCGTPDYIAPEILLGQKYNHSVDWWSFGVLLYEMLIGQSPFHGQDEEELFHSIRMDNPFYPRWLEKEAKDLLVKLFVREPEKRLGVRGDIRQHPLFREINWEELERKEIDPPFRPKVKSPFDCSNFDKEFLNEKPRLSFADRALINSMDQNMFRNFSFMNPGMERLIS
Summary of the method: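 Coupled-enzyme kinase assay following NADH absorbance at 340 nm, in 100 mM HEPES pH 7.5, 10 mM MgCl2, 25 mM NaCl, 0.1 mM EDTA, 0.01% Brij. Compound in DMSO preincubated with enzyme 10 min at 30 °C. Ki from initial rates by non-linear regression.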

PKC alpha kinase = PKC alpha kinase (Homo sapiens, UniProt P17252); assay: PKC alpha kinase inhibition, coupled-enzyme NADH absorbance assay (Ki); settings: 130 μM ATP, 4.5 nM PKC alpha, 30° C.; read-out: Ki PKC alpha

Chain of PKC delta kinase (Q05655 whole entry): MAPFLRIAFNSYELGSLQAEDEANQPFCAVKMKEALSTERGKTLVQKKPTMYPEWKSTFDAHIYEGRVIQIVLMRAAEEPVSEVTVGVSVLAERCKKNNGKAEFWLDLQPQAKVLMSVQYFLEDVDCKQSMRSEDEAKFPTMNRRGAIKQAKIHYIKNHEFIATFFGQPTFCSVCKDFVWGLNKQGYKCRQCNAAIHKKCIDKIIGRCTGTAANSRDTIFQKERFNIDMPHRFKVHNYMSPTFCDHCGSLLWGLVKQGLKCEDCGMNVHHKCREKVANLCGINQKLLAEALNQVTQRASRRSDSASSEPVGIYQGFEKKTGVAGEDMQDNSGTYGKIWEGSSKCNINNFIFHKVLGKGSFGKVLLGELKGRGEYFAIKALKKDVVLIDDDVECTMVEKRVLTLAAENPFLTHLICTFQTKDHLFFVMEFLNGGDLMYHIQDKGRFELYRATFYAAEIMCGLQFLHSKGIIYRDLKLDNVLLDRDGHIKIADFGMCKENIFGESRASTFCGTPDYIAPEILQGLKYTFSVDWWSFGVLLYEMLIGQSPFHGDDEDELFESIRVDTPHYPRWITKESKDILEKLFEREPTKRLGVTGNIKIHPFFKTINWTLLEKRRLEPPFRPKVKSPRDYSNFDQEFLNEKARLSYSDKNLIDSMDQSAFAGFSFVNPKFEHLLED

Ki (PKC delta kinase) [nM]	Ki (PKC theta kinase) [nM]	Ki (PKC alpha kinase) [nM]	SMILES
< 2800	< 50	< 2800	CCC(N)c1cccc(-c2ccnc3[nH]nc(C(F)(F)F)c23)c1 (stereo not drawn) [Compound 309]
> 2800	< 500	> 2800	CC(C)C(O)c1cc(-c2ccnc3[nH]ncc23)cc(C(C)(C)C#N)c1 (stereo not drawn) [Compound 19]
< 500	< 50	< 500	Cc1cc(-c2ccnc3[nH]nc(Cl)c23)cc(C2(CN)CCOCC2)c1 [Compound 209]
< 50	< 50	< 50	CCC(C)(CN)c1cccc(-c2ccnc3[nH]nc(Cl)c23)c1 (stereo not drawn) [Compound 204, 2-(3-(3-chloro-1H-pyrazolo[3,4-b]pyridin-4-yl)phenyl)-2-methylbutan-1-amine]
< 500	< 50	< 500	Cc1cc(-c2ccnc3[nH]nc(C(F)(F)F)c23)cc(C2(CN)CC2)c1 [Compound 282]
> 1200	< 500	< 2800	Cc1cc(-c2ccnc3[nH]ncc23)cc(C2(Cc3ccccc3)CNC(=O)O2)c1 (stereo not drawn) [Compound 327]
< 500	< 50	< 2800	N#CC1(c2cccc(-c3ccnc4[nH]ncc34)c2)CC1 [Compound 98]
> 2000	> 700	> 1200	CCC(C)(CN)c1cc(-c2ccnc3[nH]ncc23)cc(C(F)(F)CCC2CCCCC2)c1 (stereo not drawn) [Compound 180]
> 1200	< 500	> 1200	NCc1cccc(-c2ccnc3[nH]nc(C(F)(F)F)c23)c1 [Compound 294]
> 2800	< 500	> 2800	CC(C)(C#N)c1cc(NCCN)cc(-c2ccnc3[nH]ncc23)c1 [Compound 17]
< 2800	< 500	< 500	Cc1cc(/C(=C/C#N)CN)cc(-c2ccnc3[nH]ncc23)c1 [Compound 323]
> 2000	< 500	< 2800	CCC(C)(C#N)c1cc(CCCF)cc(-c2ccnc3[nH]ncc23)c1 (stereo not drawn) [Compound 107]
> 2000	< 500	> 1200	CCC(C)(C#N)c1cc(CC(F)(F)F)cc(-c2ccnc3[nH]ncc23)c1 (stereo not drawn) [Compound 113]
< 2800	< 50	< 500	CCC(F)(CN)c1cc(C)cc(-c2ccnc3[nH]ncc23)c1 (stereo not drawn) [Compound 227]
< 500	< 50	< 500	NCC1(c2cc(F)cc(-c3ccnc4[nH]nc(Cl)c34)c2)CCOCC1 [Compound 257]
< 2800	< 50	< 2800	NCC1(c2cccc(-c3ccnc4[nH]ncc34)c2)CCOCC1 [Compound 157]
< 500	< 50	< 500	N#CC1(c2cc(-c3ccnc4[nH]nc(C(F)(F)F)c34)cc(C(F)(F)CN)c2)CC1 [Compound 311]
> 2800	< 500	< 2800	N#CC1(c2cc(-c3ccnc4[nH]ncc34)cc(C(F)(F)F)c2)CCC1 [Compound 92]
< 2800	< 500	> 1200	NC[C@]1(c2cccc(-c3ccnc4[nH]ncc34)c2)CC[C@H](O)CC1 [Compound 183]
< 500	< 50	< 500	CC(C)C(C)(CN)c1cccc(-c2ccnc3[nH]ncc23)c1 (stereo not drawn) [Compound 48]
> 1200	< 2800	> 1200	CC(C)(O)C#Cc1cc(-c2ccnc3[nH]nc(C(F)(F)F)c23)cc(C2(C#N)CC2)c1 [Compound 315]
< 500	< 50	< 500	C#CC1(c2cc(C)cc(-c3ccnc4[nH]ncc34)c2)CNC(=O)O1 (stereo not drawn) [Compound 319]
< 2800	< 500	> 1200	NC[C@]1(c2cccc(-c3ccnc4[nH]ncc34)c2)CC[C@@H](O)CC1 [Compound 182]
< 2800	< 50	< 500	COCC[C@](C)(CN)c1cccc(-c2ccnc3[nH]nc(C(F)(F)F)c23)c1 [Compound 287]
> 2000	< 500	> 1200	CCC(C)(CN)c1cc(CC(F)(F)F)cc(-c2ccnc3[nH]ncc23)c1 (stereo not drawn) [Compound 163]

Ki (PKC delta kinase) [nM]	Ki (PKC theta kinase) [nM]	Ki (PKC alpha kinase) [nM]	SMILES
< 500	< 50	< 500	COCC[C@@](C)(CN)c1cccc(-c2ccnc3[nH]nc(C(F)(F)F)c23)c1 [Compound 286]
> 2000	< 500	< 2800	CCC(C)(C#N)c1cc(-c2ccnc3[nH]ncc23)cc(C(C)F)c1 (stereo not drawn) [Compound 105]
> 2800	< 50	< 2800	CCc1cc(-c2ccnc3[nH]ncc23)cc(C(C)(C)C#N)c1 [Compound 62]
> 2800	< 500	> 2800	C/C=C/c1cc(-c2ccnc3[nH]ncc23)cc(C(C)(C)C#N)c1 [Compound 54]
< 500	< 50	< 500	C=CCC(C)(CN)c1cccc(-c2ccnc3[nH]ncc23)c1 (stereo not drawn) [Compound 134]
< 500	< 50	< 2800	NCC1(c2cccc(-c3ccnc4[nH]nc(C(F)(F)F)c34)c2)COC1 [Compound 305, (3-(3-(3-(trifluoromethyl)-1H-pyrazolo[3,4-b]pyridin-4-yl)phenyl)oxetan-3-yl)methanamine]
< 2800	< 500	< 2800	C1=C(c2cccc(-c3ccnc4[nH]ncc34)c2)CNC1 [Compound 231]
< 500	< 50	< 2800	CC(CN)(Cc1ccncc1)c1cccc(-c2ccnc3[nH]ncc23)c1 (stereo not drawn) [Compound 172]
< 500	< 50	< 2800	COCC(C)(CN)c1cccc(-c2ccnc3[nH]ncc23)c1 (stereo not drawn) [Compound 150]
< 2800	< 500	< 2800	CCC(C)(C#N)c1cc(-c2ccnc3[nH]ncc23)cc(C(F)(F)F)c1 (stereo not drawn) [Compound 93]
> 2000	> 700	> 1200	CCC(C)(C#N)c1cc(-c2ccnc3[nH]ncc23)cc(C(F)(F)CCC2CCCCC2)c1 (stereo not drawn) [Compound 118]
< 50	< 50	< 500	CC[C@](C)(CN)c1cccc(-c2ccnc3[nH]ncc23)c1 [Compound 151]
< 2800	< 50	< 2800	OCC1(c2cccc(-c3ccnc4[nH]ncc34)c2)CCNC1 (stereo not drawn) [Compound 196]
> 2800	< 500	< 2800	CC(C#N)(CC1CC1)c1cccc(-c2ccnc3[nH]ncc23)c1 (stereo not drawn) [Compound 80]
< 500	< 50	< 500	CC(C)CC(C)(CN)c1cccc(-c2ccnc3[nH]ncc23)c1 (stereo not drawn) [Compound 45]
< 50	< 50	< 50	CC#CC[C@](C)(CN)c1cccc(-c2ccnc3[nH]ncc23)c1 [Compound 185]
> 2000	< 500	> 1200	CCC(C)(C#N)c1cc(CCC(F)F)cc(-c2ccnc3[nH]ncc23)c1 (stereo not drawn) [Compound 108]
< 500	< 50	< 500	NCC1(c2cccc(-c3ccnc4[nH]nc(C(F)(F)F)c34)c2)CC1 [Compound 278]
< 500	< 50	< 500	CCC(C)(CN)c1cc(C)cc(-c2ccnc3[nH]ncc23)c1 (stereo not drawn) [Compound 144]
> 2800	< 50	< 2800	CCC(C)(C#N)c1cc(CCO)cc(-c2ccnc3[nH]ncc23)c1 (stereo not drawn) [Compound 101]
< 2800	< 2800	< 500	Cc1cnc2[nH]ncc2c1-c1cccc(C(C)(C)CN)c1 [Compound 237, 2-methyl-2-(3-(5-methyl-1H-pyrazolo[3,4-b]pyridin-4-yl)phenyl)propan-1-amine]
< 500	< 50	< 2800	NCC1(c2cccc(-c3ccnc4[nH]ncc34)c2)CCCCC1 [Compound 177]
< 2800	< 50	< 500	CCC1(c2cccc(-c3ccnc4[nH]nc(C(F)(F)F)c34)c2)CNC(=O)O1 (stereo not drawn) [Compound 288]
> 1200	> 700	> 1200	NC(CCC1CCCCC1)c1cccc(-c2ccnc3[nH]ncc23)c1 (stereo not drawn) [Compound 252]
< 2800	< 500	< 2800	COc1cc(-c2ccnc3[nH]ncc23)cc(C(C)(C)CN)c1 [Compound 142]

SMILES	Ki (PKC delta kinase) [nM]	Ki (PKC theta kinase) [nM]	Ki (PKC alpha kinase) [nM]
NCC1(c2cccc(-c3ccnc4[nH]nc(Cl)c34)c2)CCC1 [Compound 260]	< 50	< 50	< 500
NCC1(c2cccc(-c3ccnc4[nH]nc(C(F)(F)F)c34)c2)CCC1 [Compound 280]	< 500	< 50	< 500
Cc1cc(-c2ccnc3[nH]nc(Cl)c23)cc(C2(CN)CCC2)c1 [Compound 207]	< 500	< 50	< 500
NCC1(c2cccc(-c3ccnc4[nH]ncc34)c2)CCC1 [Compound 49]	< 500	< 50	< 2800
NCC1(c2cc(-c3ccnc4[nH]ncc34)cc(C(F)(F)F)c2)CCC1 [Compound 140]	< 2800	< 500	< 2800
CCc1cc(-c2ccnc3[nH]nc(C(F)(F)F)c23)cc(C2(CN)CCC2)c1 [Compound 272]	< 2800	< 50	< 500
